US10538555B2, “Macrocyclic inhibitors of the PD-1/PD-L1 and CD80(B7-1)/PD-L1 protein/protein interactions” (BRISTOL-MYERS SQUIBB COMPANY, priority 2014, dated 2020)
*1 amine or outer side, *2 acyl side, *3 side chain or, on linkers, in order; H or OH if unused. Where a SMILES comes first, the peptide text is derived from it. Bridges are numbered along the chain shown (N, C = ends). [ ]: non-standard residue; d: D form. Trp(βS-Me) = C[C@@H](c1c[nH]c2ccccc12)[C@H](N)C(=O)O; Phe(3,4,5-F3) = N[C@@H](Cc1cc(F)c(F)c(F)c1)C(=O)O; Phe(3,4-F2) = N[C@@H](Cc1ccc(F)c(F)c1)C(=O)O; d(cisHyp) = O=C(O)[C@H]1C[C@@H](O)CN1; Bta = N[C@@H](Cc1csc2ccccc12)C(=O)O; NMeY = CN[C@@H](Cc1ccc(O)cc1)C(=O)O; Hyp = O=C(O)[C@@H]1C[C@@H](O)CN1; NMeF = CN[C@@H](Cc1ccccc1)C(=O)O; dHyp = O=C(O)[C@H]1C[C@H](O)CN1; X9 = NN[C@H](N[*:1])C(=O)[*:2]; NMeNle = CCCC[C@H](NC)C(=O)O; NMeA = CN[C@@H](C)C(=O)O; Orn = NCCC[C@H](N)C(=O)O; Dab = NCC[C@H](N)C(=O)O; Dap = NC[C@H](N)C(=O)O; Sar = CNCC(=O)O

The molecules below were run against T1, Human PD-L1/PD-1 (Homo sapiens, UniProt Q9NZQ7) (assay: HTRF Human PD-L1/PD-1 binding assay (PD-1-Ig/PD-L1-His)). Settings: PD-L1-His 10 nM, PD-1-Ig 20 nM; class symbol; read-out: HTRF Human PD-L1/PD-1 Binding Assay IC50 Range.
T1 construct: TVMV protease cleavage site (C); made in house; host or cells: HEK293T cells
Source text: Methods for Testing the Ability of Macrocyclic Peptides to Compete for the Binding of PD-1 to PD-L1 Using Homogenous Time-Resolved Fluorescence (HTRF) Binding Assays
The ability of the macrocyclic peptides of the present disclosure to bind to PD-L1 was investigated using a PD-1/PD-L1 Homogenous Time-Resolved Fluorescence (HTRF) binding assay.
Homogenous Time-Resolved Fluorescence (HTRF) Assays of Binding of Soluble PD-1 to Soluble PD-L1. Soluble PD-1 and soluble PD-L1 refers to proteins with carboxyl-end truncations that remove the transmembrane-spanning regions and are fused to heterologous sequences, specifically the Fc portion of the human immunoglobuling G sequence (Ig) or the hexahistidine epitope tag (His). All binding studies were performed in an HTRF assay buffer consisting of dPBS supplemented with 0.1% (w/v) bovine serum albumin and 0.05% (v/v) Tween-20. For the PD-1-Ig/PD-L1-His binding assay, inhibitors were pre-incubated with PD-L1-His (10 nM final) for 15 m in 4 μl of assay buffer, followed by addition of PD-1-Ig (20 nM final) in 1 μl of assay buffer and further incubation for 15 m. PD-L1 fusion proteins from either human, cynomolgus macaques, or mouse were used. HTRF detection was achieved using europium crypate-labeled anti-Ig monoclonal antibody (1 nM final) and allophycocyanin (APC) labeled anti-His monoclonal antibody (20 nM final). Antibodies were diluted in HTRF detection buffer and 5 μl was dispensed on top of binding reaction. The reaction was allowed to equilibrate for 30 minutes and signal (665 nm/620 nm ratio) was obtained using an EnVision fluorometer. Additional binding assays were established between PD-1-Ig/PD-L2-His (20 and 5 nM, respectively), CD80-His/PD-L1-Ig (100 and 10 nM, respectively) and CD80-His/CTLA4-Ig (10 and 5 nM, respectively). Competition studies between biotinylated Compound No. 71 and human PD-L1-His were performed as follows. Macrocyclic peptide inhibitors were pre-incubated with PD-L1-His (10 nM final) for 60 minutes in 4 μl of assay buffer followed by addition of biotinylated Compound No. 71 (0.5 nM final) in 1 μl of assay buffer. Binding was allowed to equilibrate for 30 minutes followed by addition of europium crypated labeled Streptavidin (2.5 pM final) and APC-labeled anti-His (20 nM final) in 5 μl of HTRF buffer. The reaction was allowed to equilibrate for 30 m and signal (665 nm/620 nm ratio) was obtained using an EnVision fluorometer.
Recombinant Proteins. Carboxyl-truncated human PD-1 (amino acids 25-167) with a C-terminal human Ig epitope tag [hPD-1 (25-167)-3S-IG] and human PD-L1 (amino acids 18-239) with a C-terminal His epitope tag [hPD-L1([…])-tobacco vein mottling virus protease cleavage site (TVMV)-His] were expressed in HEK293T cells and purified sequentially by rProteinA affinity chromatography and size exclusion chromatography.

T1 sequence (Q9NZQ7 with tags, fused parts or gaps): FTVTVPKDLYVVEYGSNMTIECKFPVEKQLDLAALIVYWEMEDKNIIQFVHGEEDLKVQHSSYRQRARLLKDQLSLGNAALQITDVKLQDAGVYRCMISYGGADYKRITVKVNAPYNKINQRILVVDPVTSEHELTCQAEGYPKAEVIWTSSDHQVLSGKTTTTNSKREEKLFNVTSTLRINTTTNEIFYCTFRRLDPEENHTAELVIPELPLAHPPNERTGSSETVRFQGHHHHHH

Row | Structure (SMILES) | IC50
1 | CCCC[C@H]1C(=O)N2CCC[C@@H]2C(=O)N[C@@H](CO)C(=O)N[C@@H](C(C)C)C(=O)N(C)[C@@H](Cc2ccccc2)C(=O)N[C@@H](Cc2ccc(O)cc2)C(=O)N2CCC[C@@H]2C(=O)N[C@@H](Cc2c[nH]c3ccccc23)C(=O)N[C@@H](Cc2ccc(O)cc2)C(=O)N[C@@H](CC(C)C)C(=O)N[C@H](C(=O)NCC(N)=O)CSCC(=O)N[C@@H](Cc2cc(F)c(F)c(F)c2)C(=O)N(C)[C@@H](Cc2ccccc2)C(=O)N1C [Example 10066] ({CH2CO}-[Phe(3,4,5-F3)][NMeF][NMeNle][dP]SV[NMeF]Y[dP]WYLCG-NH2; thioether N-13) | 1 to 9.9 nM
2 | CCCC[C@H]1C(=O)N(C)[C@@H](CCCC)C(=O)N[C@@H](CCC(=O)O)C(=O)N[C@H](C(=O)NCC(N)=O)CSCC(=O)N[C@@H](Cc2ccc(O)cc2)C(=O)N(C)[C@@H](C)C(=O)N[C@@H](CC(N)=O)C(=O)N2CCC[C@H]2C(=O)N[C@@H](CO)C(=O)N[C@@H](CCC(N)=O)C(=O)N2C[C@H](O)C[C@H]2C(=O)N[C@@H](Cc2c[nH]c3ccccc23)C(=O)N[C@@H](CCN)C(=O)N[C@@H](Cc2c[nH]c3ccccc23)C(=O)N1C [Example 5251] ({CH2CO}-Y[NMeA]NPSQ[Hyp]W[Dab]W[NMeNle][NMeNle]ECG-NH2; thioether N-14) | 1 to 9.9 nM
3 | CCCC[C@H]1C(=O)N(C)[C@@H](CCCC)C(=O)N[C@@H](CCC(=O)O)C(=O)N[C@H](C(=O)NCC(N)=O)CSCC(=O)N[C@@H](Cc2ccc(O)cc2)C(=O)N(C)[C@@H](C)C(=O)N[C@@H](CC(=O)O)C(=O)N2CCC[C@H]2C(=O)N[C@@H](CO)C(=O)N[C@@H](CCC(N)=O)C(=O)N2C[C@H](O)C[C@H]2C(=O)N[C@@H](Cc2c[nH]c3ccccc23)C(=O)N[C@@H](CCC(=O)O)C(=O)N[C@@H](Cc2c[nH]c3ccccc23)C(=O)N1C [Example 5177] ({CH2CO}-Y[NMeA]DPSQ[Hyp]WEW[NMeNle][NMeNle]ECG-NH2; thioether N-14) | 10 to 99.9 nM
4 | CCCC[C@H]1C(=O)N(C)CC(=O)N[C@@H](CC(N)=O)C(=O)N[C@@H](C(C)C)C(=O)N(C)[C@@H](Cc2ccccc2)C(=O)N[C@@H](Cc2ccc(O)cc2)C(=O)N(C)CC(=O)N[C@@H](Cc2c[nH]c3ccccc23)C(=O)N[C@@H](Cc2ccc(O)cc2)C(=O)N[C@@H](CC(C)C)C(=O)N[C@H](C(=O)NCC(N)=O)CSCC(=O)N[C@@H](Cc2ccccc2)C(=O)N(C)[C@@H](Cc2ccccc2)C(=O)N1C [Example 3237] ({CH2CO}-F[NMeF][NMeNle][Sar]NV[NMeF]Y[Sar]WYLCG-NH2; thioether N-13) | 10 to 99.9 nM
5 | CCCC[C@H]1C(=O)N2C[C@@H](O)C[C@@H]2C(=O)N[C@@H](CC(=O)O)C(=O)N[C@@H](C(C)C)C(=O)N(C)[C@@H](Cc2ccccc2)C(=O)N[C@@H](CCC(=O)O)C(=O)N2C[C@@H](O)C[C@@H]2C(=O)N[C@@H](Cc2c[nH]c3ccccc23)C(=O)N[C@@H](Cc2ccc(O)cc2)C(=O)N[C@@H](CCCN)C(=O)N[C@H](C(=O)NCC(N)=O)CSCC(=O)N[C@@H](Cc2ccc(F)c(F)c2)C(=O)N(C)[C@@H](Cc2ccccc2)C(=O)N1C [Example 9278] ({CH2CO}-[Phe(3,4-F2)][NMeF][NMeNle][dHyp]DV[NMeF]E[dHyp]WY[Orn]CG-NH2; thioether N-13) | 1 to 9.9 nM
6 | CCCC[C@H]1C(=O)N(C)[C@@H](CCCC)C(=O)N[C@H](C)C(=O)N[C@H](C(=O)NCC(N)=O)CSCC(=O)N[C@@H](Cc2ccc(O)cc2)C(=O)N(C)[C@@H](C)C(=O)N[C@@H](CC(N)=O)C(=O)N2CCC[C@H]2C(=O)N[C@@H](Cc2c[nH]cn2)C(=O)N[C@@H](CCC(=O)O)C(=O)N2C[C@H](O)C[C@H]2C(=O)N[C@@H](Cc2c[nH]c3ccccc23)C(=O)N[C@@H](CCN)C(=O)N[C@@H](Cc2csc3ccccc23)C(=O)N1C [Example 5159] ({CH2CO}-Y[NMeA]NPHE[Hyp]W[Dab][Bta][NMeNle][NMeNle][dA]CG-NH2; thioether N-14) | 1 to 9.9 nM
7 | CCCC[C@H]1C(=O)N2CCC[C@@H]2C(=O)N[C@@H](CC(=O)O)C(=O)N[C@@H](C(C)C)C(=O)N(C)[C@@H](Cc2ccccc2)C(=O)N[C@@H](CCC(=O)O)C(=O)N2C[C@H](O)C[C@@H]2C(=O)N[C@@H](Cc2c[nH]c3ccccc23)C(=O)N[C@@H](Cc2ccc(O)cc2)C(=O)N[C@@H](CCC(N)=O)C(=O)N[C@H](C(=O)NCC(N)=O)CSCC(=O)N[C@@H](Cc2cc(F)c(F)c(F)c2)C(=O)N(C)[C@@H](Cc2ccc(O)cc2)C(=O)N1C [Example 10631] ({CH2CO}-[Phe(3,4,5-F3)][NMeY][NMeNle][dP]DV[NMeF]E[d(cisHyp)]WYQCG-NH2; thioether N-13) | 10 to 99.9 nM

Now from value to molecule:

Row | IC50 | Structure (SMILES)
8 | 1 to 9.9 nM | CCCC[C@H]1C(=O)N(C)[C@@H](CCCC)C(=O)N[C@@H](CCCNC(=N)N)C(=O)N[C@H](C(=O)NCC(N)=O)CSCC(=O)N[C@@H](Cc2ccc(O)cc2)C(=O)N(C)[C@@H](C)C(=O)N[C@@H](CC(N)=O)C(=O)N2CCC[C@H]2C(=O)N[C@@H](NN)C(=O)N[C@@H](CC(C)C)C(=O)N2C[C@H](O)C[C@H]2C(=O)N[C@@H](Cc2c[nH]c3ccccc23)C(=O)N[C@@H]([C@@H](C)O)C(=O)N[C@@H](Cc2c[nH]c3ccccc23)C(=O)N1C [Example 7073] ({CH2CO}-Y[NMeA]NP[X9]L[Hyp]WTW[NMeNle][NMeNle]RCG-NH2; thioether N-14)
9 | 10 to 99.9 nM | CCCC[C@H]1C(=O)N2C[C@H](O)C[C@@H]2C(=O)N[C@@H](CC(=O)O)C(=O)N[C@@H](C(C)C)C(=O)N(C)[C@@H](Cc2ccccc2)C(=O)N[C@@H](CC(=O)O)C(=O)N2C[C@H](O)C[C@@H]2C(=O)N[C@@H](Cc2c[nH]c3ccccc23)C(=O)N[C@@H](Cc2ccc(O)cc2)C(=O)N[C@@H](CN)C(=O)N[C@H](C(=O)NCC(N)=O)CSCC(=O)N[C@@H](Cc2cc(F)c(F)c(F)c2)C(=O)N(C)[C@@H](Cc2ccccc2)C(=O)N1C [Example 9348] ({CH2CO}-[Phe(3,4,5-F3)][NMeF][NMeNle][d(cisHyp)]DV[NMeF]D[d(cisHyp)]WY[Dap]CG-NH2; thioether N-13)
10 | 1 to 9.9 nM | CCCC[C@H]1C(=O)N(C)[C@@H](CCCC)C(=O)N[C@@H](CC(C)C)C(=O)N[C@H](C(=O)NCC(N)=O)CSCC(=O)N[C@@H](Cc2ccc(O)cc2)C(=O)N(C)[C@@H](C)C(=O)N[C@@H](CC(N)=O)C(=O)N2CCC[C@H]2C(=O)N[C@@H](Cc2c[nH]cn2)C(=O)N[C@@H](CCC(=O)O)C(=O)N2C[C@H](O)C[C@H]2C(=O)N[C@@H]([C@@H](C)c2c[nH]c3ccccc23)C(=O)N[C@@H](CCN)C(=O)N[C@@H](Cc2c[nH]c3ccccc23)C(=O)N1C [Example 10555] ({CH2CO}-Y[NMeA]NPHE[Hyp][Trp(βS-Me)][Dab]W[NMeNle][NMeNle]LCG-NH2; thioether N-14)
11 | 100 to 990 nM | CCCC[C@H]1C(=O)N(C)[C@@H](CCCC)C(=O)N[C@@H](CCC(=O)O)C(=O)N[C@H](C(=O)NCC(N)=O)CSCC(=O)N[C@@H](Cc2ccc(OC)cc2)C(=O)N(C)[C@@H](C)C(=O)N[C@@H](CC(N)=O)C(=O)N2CCC[C@H]2C(=O)N[C@@H](Cc2cnc[nH]2)C(=O)N[C@@H](CCCCN)C(=O)N2C[C@H](O)C[C@H]2C(=O)N[C@@H](Cc2c[nH]c3ccccc23)C(=O)N[C@@H](CC(=O)O)C(=O)N[C@@H](Cc2c[nH]c3ccccc23)C(=O)N1C [Example 7115] ({CH2CO}-Y(Me)[NMeA]NPHK[Hyp]WDW[NMeNle][NMeNle]ECG-NH2; thioether N-14)
12 | 1000 to 10000 nM | CCCC[C@H]1C(=O)N(C)CC(=O)N[C@@H](CC(=O)O)C(=O)N[C@@H](C(C)C)C(=O)N[C@@H](Cc2c[nH]c3ccccc23)C(=O)N[C@@H](Cc2ccc(O)cc2)C(=O)N(C)CC(=O)N[C@@H](Cc2c[nH]c3ccccc23)C(=O)N[C@@H](Cc2ccc(O)cc2)C(=O)N[C@@H](CC(C)C)C(=O)N[C@H](C(=O)NCC(N)=O)CSCC(=O)N[C@@H](Cc2ccccc2)C(=O)N(C)[C@@H](Cc2ccccc2)C(=O)N1C [Example 3232] ({CH2CO}-F[NMeF][NMeNle][Sar]DVWY[Sar]WYLCG-NH2; thioether N-13)
